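GI50 is the concentration that inhibits growth by half. Definition used: TGI = concentration required for complete inhibition of growth.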
Legend:
Assay in all cases: NCI-60 cell line screen, 384-well format
OVCAR-4 ovarian = tested on: OVCAR-4 ovarian
CAKI-1 renal = tested on: CAKI-1 renal
ACHN renal = tested on: ACHN renal
PC-3 prostate = tested on: PC-3 prostate
NCI-H522 lung = tested on: NCI-H522 lung
NCI-H226 lung = tested on: NCI-H226 lung
NCI/ADR-RES ovarian = tested on: NCI/ADR-RES ovarian
BT-549 breast = tested on: BT-549 breast
KM12 colon = tested on: KM12 colon
RXF 393 renal = tested on: RXF 393 renal
SK-MEL-5 melanoma = tested on: SK-MEL-5 melanoma
MALME-3M melanoma = tested on: MALME-3M melanoma
RPMI-8226 leukemia = tested on: RPMI-8226 leukemia

With `CC(C)C[C@H](NC(=O)[C@H](Cc1ccccc1)NC(=O)c1cnccn1)B(O)O` the GI50 (OVCAR-4 ovarian) was less than 0.01 µM, the TGI (OVCAR-4 ovarian) was less than 0.01 µM and the GI50 (CAKI-1 renal) was less than 0.01 µM. The TGI (CAKI-1 renal) was less than 0.012 µM, the GI50 (ACHN renal) was less than 0.01 µM and the TGI (ACHN renal) was less than 0.01 µM. For the same compound, the GI50 (PC-3 prostate) was less than 0.01 µM, the TGI (PC-3 prostate) was less than 0.0137 µM and the GI50 (NCI-H522 lung) was less than 0.01 µM. The TGI (NCI-H522 lung) was less than 0.01 µM, the GI50 (NCI-H226 lung) was less than 0.01 µM and the TGI (NCI-H226 lung) was less than 0.01 µM. For the same compound, the GI50 (NCI/ADR-RES ovarian) was 0.0321 µM, the TGI (NCI/ADR-RES ovarian) was 0.0926 µM and the GI50 (BT-549 breast) was less than 0.01 µM. The TGI (BT-549 breast) was less than 0.01 µM, the GI50 (KM12 colon) was less than 0.01 µM and the TGI (KM12 colon) was less than 0.0129 µM. For the same compound, the GI50 (RXF 393 renal) was less than 0.01 µM, the TGI (RXF 393 renal) was less than 0.01 µM and the GI50 (SK-MEL-5 melanoma) was less than 0.01 µM. It also gave a TGI (SK-MEL-5 melanoma) of less than 0.01 µM, a GI50 (MALME-3M melanoma) of less than 0.01 µM and a TGI (MALME-3M melanoma) of less than 0.01 µM. The GI50 (RPMI-8226 leukemia) was less than 0.01 µM and the TGI (RPMI-8226 leukemia) was less than 0.01 µM.

Reference: PubChem BioAssay (NCI)
